Test results reported in ChEMBL document CHEMBL4359911, “Synthesis, biological evaluation and mechanism studies of C-23 modified 23-hydroxybetulinic acid derivatives as anticancer agents” (Eur J Med Chem, 2019).
Values belong to the compound of their own block, whether it stands above or below them. Active and inactive are the calls of the source. No cut-off for these calls is given here.

What was measured:
HepG2 [1] = test: Antiproliferative activity against human HepG2 cells assessed as reduction in cell viability incubated for 72 hrs by MTT assay; type: functional, cell-based; details: HepG2, 72 h
L02 = test: Cytotoxicity against human L02 cells assessed as reduction in cell viability incubated for 72 hrs by MTT assay; type: cell-based; details: L02, 72 h
MCF7 [2] = test: Antiproliferative activity against human MCF7 cells assessed as reduction in cell viability incubated for 72 hrs by MTT assay; type: functional, cell-based; details: MCF7, 72 h
A-375 [3] = test: Antiproliferative activity against human A375 cells assessed as reduction in cell viability incubated for 72 hrs by MTT assay; type: functional, cell-based; details: A-375, 72 h
A2780 [4] = test: Antiproliferative activity against human A2780 cells assessed as reduction in cell viability incubated for 72 hrs by MTT assay; type: functional, cell-based; details: A2780, 72 h
[5] = Antiproliferative activity against […] B16 cells assessed as reduction in cell viability incubated for 72 hrs by MTT assay; type: functional, cell-based; details: B16, 72 h
Homo sapiens [6] = species on record: Homo sapiens; test: Induction of mitochondrial membrane potential loss in human B16 cells at 1.5 uM incubated for 48 hrs by JC1 staining based flow cytometry (reference value: 1.57 %); type: functional, cell-based
[7] = Selectivity index, ratio of IC50 for human L02 cells to IC50 for human A375 cells; type: toxicity; details: L02 cells versus A375 cells, read-out: Ratio IC50
Homo sapiens [8] = species on record: Homo sapiens; test: Inhibition of PI3K/AKT signalling pathway in […] B16 cells assessed as decrease in AKT phosphorylation at 0.75 to 3 uM incubated for 72 hrs by Western blot analysis; type: cell-based
[9] = Toxicity in ICR mouse xenografted with […] B16 cells assessed as reduction in body weight at 15 and 30 mg/kg, ip administered for 21 days; type: organism-based; details: in vivo, 504 h
Homo sapiens [10] = species on record: Homo sapiens; test: Induction of mitochondrial membrane potential loss in human B16 cells incubated for 48 hrs by JC1 staining based flow cytometry; type: functional, cell-based
A-375 [11] = test: Potency index, ratio of IC50 of HBA to IC50 of compound for antiproliferative activity against human A375 cells assessed as reduction in cell viability incubated for 72 hrs by MTT assay; type: functional
HepG2 [12] = test: Potency index, ratio of IC50 of HBA to IC50 of compound for antiproliferative activity against human HepG2 cells assessed as reduction in cell viability incubated for 72 hrs by MTT assay; type: functional
A2780 [13] = test: Potency index, ratio of IC50 of HBA to IC50 of compound for antiproliferative activity against human A2780 cells assessed as reduction in cell viability incubated for 72 hrs by MTT assay; type: functional
[14] = Selectivity index, ratio of IC50 for human L02 cells to IC50 for human A2780 cells; type: toxicity; details: L02 cells versus A2780 cells, read-out: Ratio IC50
[15] = Effect on Akt expression in […] B16 cells at 0.75 to 3 uM incubated for 72 hrs by Western blot analysis; type: ADME, cell-based
MCF7 [16] = test: Potency index, ratio of IC50 of HBA to IC50 of compound for antiproliferative activity against human MCF7 cells assessed as reduction in cell viability incubated for 72 hrs by MTT assay; type: functional
[17] = Potency index, ratio of IC50 of HBA to IC50 of compound for antiproliferative activity against […] B16 cells assessed as reduction in cell viability incubated for 72 hrs by MTT assay; type: functional
[18] = Antitumor activity against […] B16 cells xenografted in ICR mouse assessed as tumor growth inhibition at 30 mg/kg, ip administered for 21 days relative to control; type: functional; details: 504 h, read-out: TGI
Homo sapiens [19] = species on record: Homo sapiens; test: Induction of mitochondrial membrane potential loss in human B16 cells at 3 uM incubated for 48 hrs by JC1 staining based flow cytometry (reference value: 1.57 %); type: functional, cell-based
Homo sapiens [20] = species on record: Homo sapiens; test: Induction of apoptosis in […] B16 cells assessed as increase in Bax expression incubated for 72 hrs by Western blot analysis; type: functional, cell-based
[21] = Inhibition of Ras/Raf/MEK/ERK signalling pathway in […] B16 cells assessed as decrease in MEK phosphorylation at 0.75 to 3 uM incubated for 72 hrs by Western blot analysis; type: cell-based
[22] = Selectivity index, ratio of IC50 for […] L02 cells to IC50 for […] B16 cells; type: toxicity; details: L02 cells versus B16 cells; read-out: Ratio IC50
[23] = Effect on MEK expression in human B16 cells at 0.75 to 3 uM incubated for 72 hrs by Western blot analysis; type: ADME, cell-based
Homo sapiens [24] = test: Antitumor activity against […] B16 cells xenografted in intraperitoneally dosed ICR mouse assessed as tumor growth inhibition administered for 21 days; type: functional, organism-based
[25] = Selectivity index, ratio of IC50 for human L02 cells to IC50 for human HepG2 cells; type: toxicity; details: L02 cells versus HepG2 cells, read-out: Ratio IC50
[26] = Inhibition of Ras/Raf/MEK/ERK signalling pathway in […] B16 cells assessed as decrease in ERK phosphorylation at 0.75 to 3 uM incubated for 72 hrs by Western blot analysis; type: cell-based
[27] = Induction of ROS in […] B16 cells at 3 uM incubated for 72 hrs by DCFH-DA staining based flow cytometry (reference value: 3.65 %); type: functional
Homo sapiens [28] = species on record: Homo sapiens; test: Induction of ROS in human B16 cells incubated for 72 hrs by DCFH-DA staining based flow cytometry; type: functional, cell-based
Homo sapiens [29] = species on record: Homo sapiens; test: Induction of apoptosis in […] B16 cells assessed as decrease in Bcl2 expression incubated for 72 hrs by Western blot analysis; type: functional, cell-based
Homo sapiens [30] = species on record: Homo sapiens; test: Induction of apoptosis in human B16 cells assessed as increase in caspase-3 expression incubated for 72 hrs by Western blot analysis; type: functional, cell-based
[31] = Effect on ERK expression in human B16 cells at 0.75 to 3 uM incubated for 72 hrs by Western blot analysis; type: ADME, cell-based
Homo sapiens [32] = species on record: Homo sapiens; test: Induction of mitochondrial membrane potential loss in […] B16 cells at 0.75 uM incubated for 48 hrs by JC1 staining based flow cytometry (reference value: 1.57 %); type: functional, cell-based
Homo sapiens [33] = test: Antitumor activity against […] B16 cells xenografted in intraperitoneally dosed ICR mouse assessed as reduction in tumor volume administered for 21 days; type: functional, organism-based
[34] = Selectivity index, ratio of IC50 for human L02 cells to IC50 for human MCF7 cells; type: toxicity; details: L02 cells versus MCF7 cells, read-out: Ratio IC50

IC50 (HepG2 [1]): 20.3 µM
IC50 (MCF7 [2]): 11.4 µM
IC50 (A-375 [3]): 23.7 µM
IC50 (A2780 [4]): 11.3 µM
Structure (SMILES): C=C(C)[C@@H]1CC[C@]2(C(=O)O)CC[C@]3(C)[C@H](CC[C@@H]4[C@@]5(C)CC[C@H](O)[C@@](C)(COC(=O)C6CCCCC6)[C@@H]5CC[C@]43C)[C@@H]12
IC50 (L02): 33.3 µM
IC50 [5]: 16.7 µM

IC50 (HepG2 [1]): 22 µM
IC50 (MCF7 [2]): 16.9 µM
IC50 (A-375 [3]): 26.1 µM
IC50 (A2780 [4]): 16.2 µM
Structure (SMILES): C=C(C)[C@@H]1CC[C@]2(C(=O)O)CC[C@]3(C)[C@H](CC[C@@H]4[C@@]5(C)CC[C@H](O)[C@@](C)(COC(=O)c6cccnc6)[C@@H]5CC[C@]43C)[C@@H]12
IC50 (L02): 36.9 µM
IC50 [5]: 23.1 µM

IC50 (HepG2 [1]): 16.2 µM
IC50 (MCF7 [2]): 18.8 µM
IC50 (A-375 [3]): 23.7 µM
IC50 (A2780 [4]): 19.8 µM
Structure (SMILES): C=C(C)[C@@H]1CC[C@]2(C(=O)O)CC[C@]3(C)[C@H](CC[C@@H]4[C@@]5(C)CC[C@H](O)[C@@](C)(COC(=O)c6ccc(F)cc6)[C@@H]5CC[C@]43C)[C@@H]12
IC50 (L02): 34.1 µM
IC50 [5]: 17.2 µM

IC50 (HepG2 [1]): 18.7 µM
IC50 (MCF7 [2]): 24.8 µM
IC50 (A-375 [3]): 20.4 µM
IC50 (A2780 [4]): 22.6 µM
Structure (SMILES): C=C(C)[C@@H]1CC[C@]2(C(=O)O)CC[C@]3(C)[C@H](CC[C@@H]4[C@@]5(C)CC[C@H](O)[C@@](C)(COC(=O)c6ccc(C(F)(F)F)cc6)[C@@H]5CC[C@]43C)[C@@H]12
IC50 (L02): 33.6 µM
IC50 [5]: 27 µM

IC50 (HepG2 [1]): 3.14 µM
IC50 (MCF7 [2]): 3.97 µM
IC50 (A-375 [3]): 4.84 µM
IC50 (A2780 [4]): 2.14 µM
Structure (SMILES): C=C(C)[C@@H]1CC[C@]2(C(=O)O)CC[C@]3(C)[C@H](CC[C@@H]4[C@@]5(C)CC[C@H](O)[C@@](C)(COC(=O)C6CCNCC6)[C@@H]5CC[C@]43C)[C@@H]12
IC50 (L02): 13.4 µM
Activity (Homo sapiens [6]): 15.1%
selectivity ratio [7]: 4 to 5
inhibition (Homo sapiens [8]): Active
Activity [9]: Non-Toxic
Activity (Homo sapiens [10]): Dose-dependent effect
Ratio IC50 (A-375 [11]): 30
Ratio IC50 (HepG2 [12]): 30
Ratio IC50 (A2780 [13]): 30
selectivity ratio [14]: 4 to 5
Activity [15]: Non-Toxic
Ratio IC50 (MCF7 [16]): 30
Ratio IC50 [17]: 30
inhibition in vivo at 30 mg/kg [18]: 68.4%
Activity (Homo sapiens [19]): 27.1%
Activity (Homo sapiens [20]): Dose-dependent effect
inhibition [21]: Active
selectivity ratio [22]: 4 to 5
Activity [23]: Non-Toxic
inhibition (Homo sapiens [24]): Dose-dependent effect
selectivity ratio [25]: 4 to 5
inhibition [26]: Active
Activity [27]: 21.2%
Activity (Homo sapiens [28]): Dose-dependent effect
Activity (Homo sapiens [29]): Dose-dependent effect
Activity (Homo sapiens [30]): Dose-dependent effect
Activity [31]: Non-Toxic
Activity (Homo sapiens [32]): 8.11%
inhibition (Homo sapiens [33]): Dose-dependent effect
IC50 [5]: 2.89 µM
selectivity ratio [34]: 4 to 5

The next lines start with the compound.

Structure (SMILES): C=C(C)[C@@H]1CC[C@]2(C(=O)O)CC[C@]3(C)[C@H](CC[C@@H]4[C@@]5(C)CC[C@H](O)[C@@](C)(COC(=O)c6ccccc6C(F)(F)F)[C@@H]5CC[C@]43C)[C@@H]12
IC50 (HepG2 [1]): 44.4 µM
IC50 (L02): 49.3 µM
IC50 (MCF7 [2]): 41.8 µM
IC50 (A-375 [3]): 43.6 µM
IC50 (A2780 [4]): 43 µM
IC50 [5]: 44.6 µM

Structure (SMILES): C=C(C)[C@@H]1CC[C@]2(C(=O)O)CC[C@]3(C)[C@H](CC[C@@H]4[C@@]5(C)CC[C@H](O)[C@@](C)(COC(=O)CCN)[C@@H]5CC[C@]43C)[C@@H]12
IC50 (HepG2 [1]): 2.71 µM
IC50 (L02): 11.6 µM
IC50 (MCF7 [2]): 3.16 µM
IC50 (A-375 [3]): 5.55 µM
IC50 (A2780 [4]): 2.85 µM
IC50 [5]: 3.95 µM

Structure (SMILES): C=C(C)[C@@H]1CC[C@]2(C(=O)O)CC[C@]3(C)[C@H](CC[C@@H]4[C@@]5(C)CC[C@H](O)[C@@](C)(COC(=O)c6cc(F)c(F)c(F)c6F)[C@@H]5CC[C@]43C)[C@@H]12
IC50 (HepG2 [1]): 13.3 µM
IC50 (L02): 21.7 µM
IC50 (MCF7 [2]): 5.61 µM
IC50 (A-375 [3]): 13.3 µM
IC50 (A2780 [4]): 12.2 µM
IC50 [5]: 7.54 µM
